Experimental findings from ChEMBL document CHEMBL5325499, “Rational Design and Development of Selective BRD7 Bromodomain Inhibitors and Their Activity in Prostate Cancer” (J Med Chem, 2023) are described below.

For orientation: IC50 means the concentration needed to halve the response being measured. By Ki is commonly meant the dissociation constant of the complex between target and ligand, obtained from inhibition or displacement. As usually defined, the Kd is the equilibrium constant for the complex coming apart.

Assay [1] deals with T1, Bromodomain-containing protein 9 (Homo sapiens) (UniProt Q9H8M2).
T1 sequence (whole entry): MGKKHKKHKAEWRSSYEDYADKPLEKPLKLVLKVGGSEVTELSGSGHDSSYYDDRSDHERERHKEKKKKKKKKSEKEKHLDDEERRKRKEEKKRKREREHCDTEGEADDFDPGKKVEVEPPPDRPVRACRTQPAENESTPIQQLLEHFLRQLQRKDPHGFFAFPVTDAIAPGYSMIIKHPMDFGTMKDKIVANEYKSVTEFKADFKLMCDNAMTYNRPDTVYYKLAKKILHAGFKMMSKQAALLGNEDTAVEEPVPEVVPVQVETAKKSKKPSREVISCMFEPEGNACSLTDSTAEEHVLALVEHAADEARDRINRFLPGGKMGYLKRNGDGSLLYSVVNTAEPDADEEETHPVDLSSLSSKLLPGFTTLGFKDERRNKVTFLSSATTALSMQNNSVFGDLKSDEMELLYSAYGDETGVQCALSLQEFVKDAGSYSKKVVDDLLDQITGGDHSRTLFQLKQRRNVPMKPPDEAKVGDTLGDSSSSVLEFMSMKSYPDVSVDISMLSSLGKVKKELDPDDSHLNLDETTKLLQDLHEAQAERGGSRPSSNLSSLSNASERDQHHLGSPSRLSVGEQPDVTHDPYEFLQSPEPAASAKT
Put plainly: Inhibition of BRD9 binding to chromatin in HEK293T cells at 10 uM incubated for 24 hrs by immunoblot analysis. It is filed as cell-based.

In assay [2] the target is T2, Bromodomain-containing protein 7 (Homo sapiens, UniProt Q9NPI1).
T2 sequence (Q9NPI1 whole entry): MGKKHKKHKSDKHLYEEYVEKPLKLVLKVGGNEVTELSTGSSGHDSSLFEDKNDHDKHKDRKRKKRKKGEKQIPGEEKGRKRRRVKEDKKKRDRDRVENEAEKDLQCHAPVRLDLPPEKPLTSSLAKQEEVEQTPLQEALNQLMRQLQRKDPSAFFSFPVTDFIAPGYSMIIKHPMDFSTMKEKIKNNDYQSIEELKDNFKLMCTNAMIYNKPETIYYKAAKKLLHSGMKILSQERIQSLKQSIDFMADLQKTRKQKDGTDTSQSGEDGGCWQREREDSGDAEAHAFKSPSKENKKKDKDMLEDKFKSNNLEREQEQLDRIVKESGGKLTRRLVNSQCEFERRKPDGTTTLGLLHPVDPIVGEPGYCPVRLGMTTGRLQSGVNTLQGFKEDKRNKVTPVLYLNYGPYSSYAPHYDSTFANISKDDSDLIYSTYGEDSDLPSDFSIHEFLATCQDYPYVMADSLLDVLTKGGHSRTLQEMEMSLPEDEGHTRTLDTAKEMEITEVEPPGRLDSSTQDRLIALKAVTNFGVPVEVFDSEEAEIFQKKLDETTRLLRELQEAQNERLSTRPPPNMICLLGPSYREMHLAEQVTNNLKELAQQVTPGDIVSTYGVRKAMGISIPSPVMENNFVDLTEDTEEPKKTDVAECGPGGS
The assay can be described thus: Displacement of NanoBRET BRD Tracer-02 from Nanoluc-fused BRD7 bromodomain (unknown origin) expressed in HEK293T cells incubated for 2 hrs by NanoBRET assay. It is filed as cell-based. A general note: In BRET a luciferase serves as donor, and the signal depends on an acceptor being close.

Assay [3] addresses T3, Bromodomain-containing protein 9 (Homo sapiens, UniProt Q9H8M2).
T3 sequence (Q9H8M2 whole entry): T1 sequence (whole entry)
Put plainly: Displacement of NanoBRET BRD Tracer-02 from Nanoluc-fused BRD9 bromodomain (unknown origin) expressed in HEK293T cells incubated for 2 hrs by NanoBRET assay. It counts as cell-based.

The species named for assay [4] is Homo sapiens. Put plainly: Binding affinity to His TEV-tagged human recombinant BRPF1B expressed in Escherichia coli BL21(DE3) assessed as protein stabilization by measuring increase in melting temperature at 1 uM measured for 120 mins by differential scanning fluorimetry. A general note: DSF heats the sample and reads unfolding from a dye or from intrinsic fluorescence.

Assay [5] concerns the target T2, Bromodomain-containing protein 7. Put plainly: Displacement of FAM-labeled BI-FAMb from N-terminal His TEV-tagged human recombinant BRD7 bromodomain expressed in Escherichia coli BL21(DE3) by competitive fluorescence polarization assay. A general note: Polarisation of emitted light reports the rotation of a fluorescent probe.
Assay [6] concerns the target T3, Bromodomain-containing protein 9. The assay can be described thus: Displacement of FAM-labeled BI-FAMb from N-terminal His TEV-tagged human recombinant BRD9 bromodomain expressed in Escherichia coli BL21(DE3) by competitive fluorescence polarization assay.
The target in assay [7] is T2, Bromodomain-containing protein 7. Put plainly: Binding affinity to human partial length BRD7 bromodomain (125 to 254 residues) expressed in mammalian expression system by BROMOscan KdELECT analysis.
Assay [8] concerns the target T1, Bromodomain-containing protein 9 (Homo sapiens). Put plainly: Inhibition of human partial length BRD9 bromodomain (130 to 259 residues) expressed in bacterial expression system at 2 uM by BROMOscan analysis.
For assay [9], the target named is T2, Bromodomain-containing protein 7. Put plainly: Binding affinity to N-terminal His TEV-tagged human recombinant BRD7 bromodomain expressed in Escherichia coli BL21(DE3) by microscale thermophoresis assay.
Assay [10] concerns the target T1, Bromodomain-containing protein 9 (Homo sapiens). The assay can be described thus: Binding affinity to N-terminal His TEV-tagged human recombinant BRD9 bromodomain expressed in Escherichia coli BL21(DE3) by microscale thermophoresis assay.
The target in assay [11] is T4, Bromodomain-containing protein 7 (Homo sapiens) (UniProt Q9NPI1).
T4 sequence (whole entry): T2 sequence (Q9NPI1 whole entry)
Put plainly: Inhibition of human partial length BRD7 bromodomain (125 to 254 residues) expressed in mammalian expression system at 2 uM by BROMOscan analysis.

Assay [12] addresses T3, Bromodomain-containing protein 9. Put plainly: Binding affinity to human partial length BRD9 bromodomain (130 to 259 residues) expressed in bacterial expression system by BROMOscan KdELECT analysis.
Assay [13] has as its system PC-3. The assay can be described thus: Antiproliferative activity against AR-negative human PC-3 cells assessed as inhibition of cell growth at 5 uM incubated for 4 days by CellTiter-Glo luminescent assay. It counts as functional, cell-based. The settings on record: time 4.0 day.
Assay [14] can be described thus: Selectivity ratio of IC50 for antiproliferative activity against human AR-negative PC-3 cells to IC50 for antiproliferative activity against human AR-positive LNCaP cells. It is filed as functional.
A short description of assay [15]: Selectivity ratio of IC50 for antiproliferative activity against human AR-negative PC-3 cells to IC50 for antiproliferative activity against human AR-positive C-42 cells. It counts as functional.
The test system of assay [16] is CWR22R. The assay can be described thus: Antiproliferative activity against human 22Rv1 cells transfected with empty vector assessed as inhibition of cell growth at 2.5 uM measured after 4 days by CellTiter-Glo luminescent assay. It is filed as functional. Further details: scale not given: the % may be the effect or the level left. Particulars: time 4 day.
The test system of assay [17] is CWR22R. The assay can be described thus: Antiproliferative activity against human 22Rv1 cells transfected with empty vector assessed as inhibition of cell growth at 5 uM measured after 4 days by CellTiter-Glo luminescent assay. It counts as functional. Further details: scale not given: the % may be the effect or the level left. The settings on record: time 4 day.

Assay [18] has as its system CWR22R. The assay can be described thus: Antiproliferative activity against human 22Rv1 cells transfected with shBRD7-1 assessed as inhibition of cell growth at 2.5 uM measured after 4 days by CellTiter-Glo luminescent assay. It is filed as functional. More on the design: scale not given: the % may be the effect or the level left. Particulars: time 4 day.
In assay [19] the test system is CWR22R. The assay can be described thus: Antiproliferative activity against human 22Rv1 cells transfected with shBRD7-1 assessed as inhibition of cell growth at 5 uM measured after 4 days by CellTiter-Glo luminescent assay. Particulars: time 4 day. Further details: scale not given: the % may be the effect or the level left. It is filed as functional.
Assay [20] concerns CWR22R. The assay can be described thus: Antiproliferative activity against human 22Rv1 cells transfected with shBRD7-2 assessed as inhibition of cell growth at 2.5 uM measured after 4 days by CellTiter-Glo luminescent assay. It is filed as functional. Further details: scale not given: the % may be the effect or the level left. The settings on record: time 4 day.
The subject of assay [21] is CWR22R. The assay can be described thus: Antiproliferative activity against human 22Rv1 cells transfected with shBRD7-2 assessed as inhibition of cell growth at 5 uM measured after 4 days by CellTiter-Glo luminescent assay. It is filed as functional. More on the design: scale not given: the % may be the effect or the level left. The settings on record: time 4 day.
The subject of the next assay is LNCaP. The assay can be described thus: Antiproliferative activity against AR-positive human LNCaP cells assessed as inhibition of cell growth at 1 uM measured after 4 days by CellTiter-Glo luminescent assay. The settings on record: time 4.0 day. It counts as functional, cell-based.
Assay [22] has as its system PC-3. The assay can be described thus: Antiproliferative activity against AR-negative human PC-3 cells assessed as inhibition of cell growth at 1 uM measured after 4 days by CellTiter-Glo luminescent assay. Particulars: time 4.0 day. It counts as functional, cell-based.
A further assay can be described thus: cells. Particulars: Homo sapiens, HEK-293T, 2 h.
Assay [23] is filed under the species Homo sapiens. The assay can be described thus: Binding affinity to His TEV-tagged human recombinant BRPF1B expressed in Escherichia coli BL21(DE3) assessed as protein stabilization by measuring increase in melting temperature at 25 uM measured for 120 mins by differential scanning fluorimetry.

Calls of active or inactive are those of the source. No cut-off for these calls is given here.

Description for cells: Displacement of NanoBRET BRD Tracer-02 from Nanoluc-fused BRPF1B bromodomain (unknown origin) expressed in HEK293T cells incubated for 2 hrs by NanoBRET assay

For `CCn1cc(-c2cccc(C(F)(F)F)c2)c2sc(C(=N)NC3CCS(=O)(=O)CC3)cc2c1=O`, the inhibition entry in assay [1] was “Active”.

For the molecule `COc1ccccc1C(=O)Nc1cc2c(cc1N1CCCCC1)n(C)c(=O)n2C`, the IC50 entry in assay [2] (hek293t) and in assay [3] (hek293t) was “Not Active” throughout. Further, in the assay filed under Homo sapiens [4], the outcome was Active.

As to `Cc1cc(C)cc(-c2cn(C)c(=O)c3ccccc23)c1`, in assay [5], the IC50 is 8.1 µM and the Ki came out at 0.86 µM. For the same molecule, in assay [6], the IC50 worked out at 4 µM and the inhibitory constant (Ki) is 0.34 µM.

In the case of `COc1ccc(-c2ccc3c(C)cc(=O)n(C)c3c2)c(OC)n1`, the Kd in [7] was found to be 0.34 µM; in assay [9] it was 2.2 µM; in [12] it was 0.655 µM. Moreover, the inhibition result in [8] and in [1] was “inactive” throughout. Besides, the IC50 is 5.4 µM in assay [5]; > 300 µM in assay [6]; 1.1 µM in [2] (read-out: IC50); 3.2 µM in assay [3] (read-out: IC50); > 10 µM in “cells”. Also, the inhibition constant Ki is 1.3 µM in assay [5] and > 20 µM in assay [6]. Moreover, the outcome (in assay [10]; in the assay on PC-3 [22]) was inactive. Moreover, in assay [11], the inhibition result was “Active”. Besides, the result with PC-3 [13] and in the assay with LNCaP was Active. Besides, the “Ratio IC50” value in [14] and in assay [15] was 3 in each case. Further, the Activity with CWR22R [16] came out at 41%; in the assay with CWR22R [17], 73%; with CWR22R [18], 13%; with CWR22R [19], 28%; in the assay on CWR22R [20], 22%; in the assay with CWR22R [21], 38%.

Consider `COc1ccc(-c2cn(C)c(=O)c3ccccc23)c(OC)n1`, for which the IC50 in [5] is 2.9 µM; in assay [6], 1.5 µM. The Ki worked out at 0.31 µM in assay [5] and 0.13 µM in [6].

In the case of `COc1ccc(-c2ccc3c(C)cc(=O)n(C)c3c2)c(C)n1`, the figures for the Kd in assay [7], in assay [9] and in [12] were 0.29 µM, 1.2 µM and 0.65 µM, respectively. For the same molecule, the inhibition result in assay [8] and in assay [1] was “inactive” each time. In addition, the IC50 in assay [5] was 1.6 µM; in [6], 2.7 µM; in assay [2] (read-out: IC50) it was 0.85 µM; in assay [3] (read-out: IC50), 3.3 µM; in the assay “cells”, 2.8 µM. Further, the Ki in assay [5] came out at 0.17 µM; in assay [6] it was 0.23 µM. Also, in assay [10], the outcome was inactive. In addition, the inhibition result in assay [11] was “Active”. Besides, the outcome in the assay listed under Homo sapiens [23] and in the assay on PC-3 [13] was Active. The “Ratio IC50” value in assay [14] and in assay [15] was 3 throughout. The Activity stood at 26% in the assay on CWR22R [16] and 52% in the assay on CWR22R [17].
